Laboratory results: patent publication US8399381B2, “Condensed heterocyclic sulfonyl urea compound, a herbicide containing the same, and a method for weed control using the same” (Sumitomo Chemical Company, Limited, priority 2002, dated 2013)

How the values were obtained:
[1] = tested on: sulfonylurea herbicide-resistant Lindernia procumbens (Krock.) Philcox; assay: Paddy pot weeding test, flooded, two-leaf stage (Test Example 1); assay type: in vivo; settings: 1 g/are, three weeks after treatment, resistant biotype, Tajiri Town, Miyagi Pref.
[2] = tested on: sulfonylurea herbicide-sensitive Scirpus juncoides var. ohwianus; assay: as above; assay type: in vivo; settings: 1 g/are, three weeks after treatment, sensitive biotype, Kyoto Pref.
[3] = tested on: sulfonylurea herbicide-sensitive Lindernia dubia subsp. major Pennell; assay: as above; assay type: in vivo; settings: 1 g/are, three weeks after treatment, sensitive biotype, Makabe Town, Ibaraki Pref.
[4] = tested on: sulfonylurea herbicide-resistant Scirpus juncoides var. ohwianus; assay: as above; assay type: in vivo; settings: 1 g/are, three weeks after treatment, resistant biotype, Iwamisawa City, Hokkaido
[5] = tested on: sulfonylurea herbicide-resistant Lindernia dubia subsp. major Pennell; assay: as above; assay type: in vivo; settings: 1 g/are, three weeks after treatment, resistant biotype, Kawanishi Town, Yamagata Pref.
[6] = tested on: sulfonylurea herbicide-sensitive Lindernia procumbens (Krock.) Philcox; assay: as above; assay type: in vivo; settings: 1 g/are, three weeks after treatment, sensitive biotype, Kyoto Pref.

SMILES | R Lindernia procumbens (Krock.) Philcox (effect index) [1] | S Scirpus juncoides var. ohwianus (effect index) [2] | S Lindernia dubia subsp. major Pennell (effect index) [3] | R Scirpus juncoides var. ohwianus (effect index) [4] | R Lindernia dubia subsp. major Pennell (effect index) [5] | S Lindernia procumbens (Krock.) Philcox (effect index) [6] | melting point
CCSc1ccc2nc(CC)c(S(=O)(=O)NC(=O)Nc3nc(OC)cc(OC)n3)n2n1 [Compound No. 7, 1-(4,6-dimethoxypyrimidin-2-yl)-3-(2-ethyl-6-ethylthioimidazo[1,2-b]pyridazin-3-ylsulfonyl)urea] | 3 (moderate 41 to 60) | 5 (excellent 81 to 100) | 5 (excellent 81 to 100) | 5 (excellent 81 to 100) | 4 (high 61 to 80) | 5 (excellent 81 to 100) | 160 to 165 °C (dec.)
CCc1nc2ccc(SC)nn2c1NC(=O)NS(=O)(=O)c1nc(OC)cc(OC)n1 [Compound No. 8] | 5 (excellent 81 to 100) | 5 (excellent 81 to 100) | 5 (excellent 81 to 100) | 5 (excellent 81 to 100) | 5 (excellent 81 to 100) | 5 (excellent 81 to 100) | 146 to 148 °C
CCc1nc2ccc(S(C)(=O)=O)nn2c1NC(=O)NS(=O)(=O)c1nc(OC)cc(OC)n1 [Compound No. 9] | 3 (moderate 41 to 60) | 5 (excellent 81 to 100) | 5 (excellent 81 to 100) | 5 (excellent 81 to 100) | 5 (excellent 81 to 100) | 5 (excellent 81 to 100) | 206 to 208 °C
COc1cc(OC)nc(S(=O)(=O)NC(=O)Nc2c(C(F)(F)F)nc3ccc(SC)nn23)n1 [Compound No. 12] | 3 (moderate 41 to 60) | 5 (excellent 81 to 100) | 5 (excellent 81 to 100) | 5 (excellent 81 to 100) | 5 (excellent 81 to 100) | 5 (excellent 81 to 100) | 266 to 267 °C
CCc1ccc2nc(C)c(S(=O)(=O)NC(=O)Nc3nc(OC)cc(OC)n3)n2n1 [Compound No. 13, 1-(4,6-dimethoxypyrimidin-2-yl)-3-(6-ethyl-2-methylimidazo[1,2-b]pyridazin-3-ylsulfonyl)urea] | 5 (excellent 81 to 100) | 5 (excellent 81 to 100) | 5 (excellent 81 to 100) | 5 (excellent 81 to 100) | 5 (excellent 81 to 100) | 5 (excellent 81 to 100) | 172 to 174 °C
COc1cc(OC)nc(S(=O)(=O)NC(=O)Nc2c(C)nc3ccc(N(C)C)nn23)n1 [Compound No. 14] | 3 (moderate 41 to 60) | 5 (excellent 81 to 100) | 5 (excellent 81 to 100) | 5 (excellent 81 to 100) | 4 (high 61 to 80) | 5 (excellent 81 to 100) | 183 to 185 °C (dec.)
CCOc1ccc2nc(C)c(NC(=O)NS(=O)(=O)c3nc(OC)cc(OC)n3)n2n1 [Compound No. 16] | 4 (high 61 to 80) | 5 (excellent 81 to 100) | 5 (excellent 81 to 100) | 5 (excellent 81 to 100) | 5 (excellent 81 to 100) | 5 (excellent 81 to 100) | 168 to 170 °C (dec.)
CCSc1ccc2nc(C)c(NC(=O)NS(=O)(=O)c3nc(OC)cc(OC)n3)n2n1 [Compound No. 18] | 5 (excellent 81 to 100) | 5 (excellent 81 to 100) | 5 (excellent 81 to 100) | 5 (excellent 81 to 100) | 5 (excellent 81 to 100) | 5 (excellent 81 to 100) | 163 to 165 °C
COc1cc(OC)nc(S(=O)(=O)NC(=O)Nc2c(C)nc3ccc(SC)nn23)n1 [Compound No. 19] | 5 (excellent 81 to 100) | 5 (excellent 81 to 100) | 5 (excellent 81 to 100) | 5 (excellent 81 to 100) | 4 (high 61 to 80) | 5 (excellent 81 to 100) | 178 to 180 °C (dec.)
COc1cc(OC)nc(S(=O)(=O)NC(=O)Nc2c(Cl)nc3ccc(SC)nn23)n1 [Compound No. 26] | 3 (moderate 41 to 60) | 5 (excellent 81 to 100) | 5 (excellent 81 to 100) | 5 (excellent 81 to 100) | 4 (high 61 to 80) | 5 (excellent 81 to 100) | 163 to 165 °C
COc1cc(OC)nc(S(=O)(=O)NC(=O)Nc2c(S(C)(=O)=O)nn3ccsc23)n1 [Compound No. 35] | 3 (moderate 41 to 60) | 5 (excellent 81 to 100) | 5 (excellent 81 to 100) | 5 (excellent 81 to 100) | 5 (excellent 81 to 100) | 5 (excellent 81 to 100) | 190 to 201 °C
CCc1ccc2nc(Cl)c(NC(=O)NS(=O)(=O)c3nc(OC)cc(OC)n3)n2n1 [Compound No. 37] | 5 (excellent 81 to 100) | 5 (excellent 81 to 100) | 5 (excellent 81 to 100) | 5 (excellent 81 to 100) | 5 (excellent 81 to 100) | 5 (excellent 81 to 100) | 162 to 166 °C
